Laboratory results taken from patent US4329353A (priority 1981, dated 1982).
Counter-ions that a name gives are not always drawn. Like-named read-outs stand apart in the source and are kept apart here.

Test system: apomorphine-induced emesis
Test: animal or person
Assay type: in vivo, beagle dogs
Conditions: Canis lupus familiaris, sc, 1 h

SMILES	ED50 (read-out: ED50 (APO)-dog)	ED50 (read-out: ED50 (APO)dog)
N#CC1(c2ccc(F)cc2)CCC(N2CCC3(CC2)C(=O)N(C(=O)Nc2ccccc2)CN3c2ccc(F)cc2)CC1 (centres unmarked) [CONHC6 H5, B, base, (B)-8-[4-cyano-4-(4-fluorophenyl)cyclohexyl]-1-(4-fluorophenyl)-4-oxo-N-phenyl-1,3,8-triazaspiro[4,5]decane-3-carboxamide]	< 160 µg/kg	
CC(=O)CCN1CN(c2ccc(F)cc2)C2(CCN(C3CCC(C#N)(c4ccc(F)cc4)CC3)CC2)C1=O (single isomer, unassigned) [CH2 CH2 COCH3, B, HCl . H2 O]	2 µg/kg	
COC(=O)C1(c2ccc(F)cc2)CCC(N2CCC3(CC2)C(=O)NCN3c2ccc(F)cc2)CC1 (centres unmarked) [COOCH3,4-FC6 H4,4-FC6 H4, base]		1.8 µg/kg
CNC(=S)N1CN(c2ccc(F)cc2)C2(CCN(C3CCC(C#N)(c4ccc(F)cc4)CC3)CC2)C1=O (centres unmarked) [CSNHCH3, base, (B)-8-[4-cyano-4-(4-fluorophenyl)cyclohexyl]-1-(4-fluorophenyl)-N-methyl-4-oxo-1,3,8-triazaspiro[4,5]decane-3-carbothioamide]	< 4 µg/kg	
NC(=O)C1(c2ccc(F)cc2)CCC(N2CCC3(CC2)C(=O)NCN3c2ccc(F)cc2)CC1 (centres unmarked) [CONH2,4-FC6 H4,4-FC6 H4, B, base, (B)-1-(4-fluorophenyl)-4-[1-(4-fluorophenyl)-4-oxo-1,3,8-triazaspiro[4,5]dec-8-yl]cyclohexanecarboxamide]		8 µg/kg
